ChEMBL document CHEMBL4385608, “5-Aryl-1,3,4-oxadiazol-2-ylthioalkanoic Acids: A Highly Potent New Class of Inhibitors of Rho/Myocardin-Related Transcription Factor (MRTF)/Serum Response Factor (SRF)-Mediated Gene Transcription as Potential Antifibrotic Agents for Scleroderma” (J Med Chem, 2019)
The source made the active and inactive calls. The rule behind the calls is not given here.

Experiments:
[1] = Inhibition of Rho/MRTF/SRF pathway (unknown origin) expressed in human PC3 cells assessed as reduction in Galpha12 Q231L-stimulated MRTF-selective SRE.L promoter-driven luciferase activity after overnight incubation by luminescence assay; assay type: cell-based
PC-3 [2] = experiment: Cytotoxicity against human PC3 cells assessed as reduction in cell viability up to 100 uM by WST-1 assay relative to control; assay type: cell-based
[3] = Oral bioavailability in CD-1 mouse at 3 mg/kg by LC-MS/MS analysis; assay type: ADME, organism-based; conditions: in vivo
[4] = Cmax in CD-1 mouse at 3 mg/kg, po by LC-MS/MS analysis; assay type: ADME, organism-based; design: dose 3 mg/kg, route oral; conditions: in vivo
[5] = Inhibition of Rho/MRTF/SRF pathway (unknown origin) expressed in HEK293T cells assessed as reduction in Galpha12-stimulated MRTF-selective SRE.L promoter-driven luciferase activity after overnight incubation by luminescence assay; assay type: cell-based, Homo sapiens
[6] = Half-life in CD-1 mouse at 3 mg/kg, po by LC-MS/MS analysis; assay type: ADME, organism-based; conditions: in vivo
[7] = Cmax in CD-1 mouse at 30 mg/kg, po by LC-MS/MS analysis; assay type: ADME, organism-based; design: dose 30 mg/kg, route oral; conditions: in vivo
[8] = AUC in CD-1 mouse at 30 mg/kg, po by LC-MS/MS analysis; assay type: ADME, organism-based; conditions: in vivo
Homo sapiens [9] = organism: Homo sapiens; experiment: Inhibition of Rho/MRTF/SRF pathway in human primary dermal fibroblasts assessed as reduction in LPA-stimulated CTGF mRNA expression preincubated for 72 hrs followed by LPA stimulation and measured after 1 hr by qPCR analysis
[10] = Half-life in CD-1 mouse at 10 mg/kg, po by LC-MS/MS analysis; assay type: ADME, organism-based; conditions: in vivo
[11] = AUC in CD-1 mouse at 3 mg/kg, po by LC-MS/MS analysis; assay type: ADME, organism-based; conditions: in vivo
[12] = AUC in CD-1 mouse at 3 mg/kg, iv by LC-MS/MS analysis; assay type: ADME, organism-based; conditions: in vivo
[13] = Cmax in CD-1 mouse at 10 mg/kg, po by LC-MS/MS analysis; assay type: ADME, organism-based; design: dose 10 mg/kg, route oral; conditions: in vivo
[14] = Cmax in CD-1 mouse at 3 mg/kg, iv by LC-MS/MS analysis; assay type: ADME, organism-based; design: dose 3 mg/kg, route intravenous; conditions: in vivo
[15] = Half-life in CD-1 mouse liver microsomes at 1 uM in presence of NADPH by LC-MS/MS analysis; assay type: ADME, Microsome
Mus musculus [16] = experiment: Antifibrotic activity in bleomycin-induced C57BL/6 mouse model of dermal fibrosis assessed as decrease in dermal thickness at 3 to 10 mg/kg, po administered via gavage for 14 days measured post-last dose by Masson's trichrome-staining based microscopic method; assay type: functional, organism-based
HEK-293T = experiment: Cytotoxicity against HEK293T cells assessed as reduction in cell viability up to 100 uM by WST-1 assay relative to control; assay type: cell-based; conditions: human
[17] = AUC in CD-1 mouse at 10 mg/kg, po by LC-MS/MS analysis; assay type: ADME, organism-based; conditions: in vivo
[18] = Equilibrium solubility of the compound in phosphate buffer saline; assay type: physicochemical
[19] = Half-life in CD-1 mouse at 3 mg/kg, iv by LC-MS/MS analysis; assay type: ADME, organism-based; conditions: in vivo
Homo sapiens [20] = organism: Homo sapiens; experiment: Inhibition of Rho/MRTF/SRF pathway in human primary dermal fibroblasts assessed as reduction in LPA-stimulated CTGF mRNA expression preincubated for 48 hrs followed by LPA stimulation and measured after 1 hr by qPCR analysis
[21] = Oral bioavailability in CD-1 mouse at 30 mg/kg by LC-MS/MS analysis; assay type: ADME, organism-based; conditions: in vivo
[22] = Oral bioavailability in CD-1 mouse at 10 mg/kg by LC-MS/MS analysis; assay type: ADME, organism-based; conditions: in vivo
Mus musculus [23] = experiment: Antifibrotic activity in bleomycin-induced C57BL/6 mouse model of dermal fibrosis assessed as decrease in hydroxyproline content at 3 to 10 mg/kg, po administered via gavage for 14 days measured post-last dose; assay type: functional, organism-based
[24] = Half-life in CD-1 mouse at 30 mg/kg, po by LC-MS/MS analysis; assay type: ADME, organism-based; conditions: in vivo
[25] = Clearance in CD-1 mouse at 3 mg/kg, iv by LC-MS/MS analysis; assay type: ADME, organism-based; conditions: in vivo
Homo sapiens [26] = organism: Homo sapiens; experiment: Inhibition of Rho/MRTF/SRF pathway in human primary dermal fibroblasts assessed as reduction in LPA-stimulated CTGF mRNA expression by measuring CTGF mRNA level at 10^-6 M preincubated for 72 hrs followed by LPA stimulation and measured after 1 hr by qPCR analysis relative to control; design: scale not given: the % may be the effect or the level left
PC-3 [27] = experiment: Cytotoxicity against human PC3 cells assessed as reduction in cell viability up to 100 uM by CellTiter-Fluor assay; assay type: cell-based
Homo sapiens [28] = organism: Homo sapiens; experiment: Inhibition of Rho/MRTF/SRF pathway (unknown origin) expressed in human PC3 cells assessed as reduction in Galpha12 Q231L-stimulated MRTF-selective SRE.L promoter-driven luciferase activity up to 100 uM after overnight incubation by luminescence assay; assay type: cell-based

O=C(O)CCSc1nc(-c2ccccc2)cc(=O)[nH]1
IC50 [1]: > 100000 nM

COc1ccc(-c2nnc(SCCC(=O)O)o2)cc1
IC50 [1]: 160 nM | Activity (PC-3 [2]): < 5%

O=C(O)CCCSc1nnc(-c2ccc(C3CC3)cc2Cl)o1
bioavailability [3]: 11% | Cmax [4]: 397 ng/mL | IC50 [5]: 0.001 nM | IC50 [1]: 0.001 nM | half-life [6]: 1.6 h | Cmax [7]: 10100 ng/mL | AUC [8]: 9500 ng·h/mL | inhibition (Homo sapiens [9]): Dose-dependent effect | half-life [10]: 1.8 h | AUC [11]: 361 ng·h/mL | AUC [12]: 3260 ng·h/mL | Cmax [13]: 1430 ng/mL | Cmax [14]: 8140 ng/mL | Activity (PC-3 [2]): < 5% | t1/2 [15]: 0.783 h | Activity (Mus musculus [16]): Active | Activity (HEK-293T): < 5% | AUC [17]: 1830 ng·h/mL | solubility thermodynamic [18]: > 1000 µM | half-life [19]: 1.7 h | inhibition (Homo sapiens [20]): inactive | bioavailability [21]: 29% | bioavailability [22]: 17% | Activity (Mus musculus [23]): Active | half-life [24]: 2.2 h | clearance [25]: 15.4 mL/min/kg

O=C(O)CCCSc1nnc(-c2ccc(OC3CC3)cc2Cl)o1
IC50 [5]: 1.3 nM | t1/2 [15]: > 1 h | Activity (HEK-293T): < 5%

O=C(O)CCCSc1nnc(-c2ccc(C(F)(F)F)cc2)o1
IC50 [5]: 46 nM | Activity (HEK-293T): < 5%

COc1ccccc1-c1nnc(SCCC(=O)O)o1
IC50 [1]: 3100 nM | Activity (PC-3 [2]): < 5%

CCc1ccc(-c2nnc(SCCCC(=O)O)o2)c(Cl)c1
IC50 [5]: 0.0007 nM | Activity (HEK-293T): < 5%

c1ccc(-c2nnc(SCCC3OCCCO3)o2)cc1
IC50 [1]: > 100000 nM

CCCc1ccc(-c2nnc(SCCCC(=O)O)o2)c(Cl)c1
IC50 [5]: < 0.0001 nM | Activity (HEK-293T): < 5%

O=C(O)CCSc1nnc(-c2ccccc2Cl)o1
IC50 [1]: 25 nM | Activity (PC-3 [2]): < 5%

O=C(O)CCCOc1nnc(-c2ccc(Cl)cc2Cl)o1
IC50 [5]: > 100000 nM

Cc1ccc(=O)n(-c2ccccc2)c1 [PIRFENIDONE]
Activity (Homo sapiens [26]): 91% | Activity (PC-3 [27]): Toxic | inhibition (Homo sapiens [28]): inactive

O=C(O)CCCSc1nnc(-c2ccccc2C(F)(F)F)o1
IC50 [5]: 10000 nM | Activity (HEK-293T): < 5%

Cc1ccccc1-c1nnc(SCCC(=O)O)o1
IC50 [1]: 6300 nM | Activity (PC-3 [2]): < 5%

O=C(O)CCCSc1nnc(-c2ccc(OC3COC3)cc2Cl)o1
IC50 [5]: 370 nM | Activity (HEK-293T): < 5%

COc1ccc(-c2nnc(SCCC(=O)O)n2C)cc1
IC50 [1]: > 100000 nM

O=C(O)CCCSc1nnc(-c2cc(C3CC3)ccc2Cl)o1
IC50 [5]: 20 nM | Activity (HEK-293T): < 5%

Cc1cc(Cl)c(-c2nnc(SCCC(=O)O)o2)cc1C
IC50 [5]: 0.23 nM | Activity (HEK-293T): < 5%

O=C(O)CCSc1nnc(-c2cccnc2)o1
IC50 [1]: 87000 nM

CC(C)c1ccc(-c2nnc(SCCCC(=O)O)o2)c(Cl)c1
IC50 [5]: 0.0007 nM | Activity (HEK-293T): < 5%

COc1ccc(-c2nnc(SCCC(=O)O)o2)c(Cl)c1
IC50 [1]: 2.6 nM | Activity (PC-3 [2]): < 5%

O=C(O)CCSc1nnc(-c2cccc(Cl)c2)o1
IC50 [1]: 1500 nM | Activity (PC-3 [2]): < 5%

O=C(O)CCCSc1nnc(-c2ccc(Br)cc2Cl)o1
IC50 [5]: 0.07 nM | Activity (HEK-293T): < 5%

O=C(O)CCCCSc1nnc(-c2ccc(Cl)cc2Cl)o1
Activity (PC-3 [2]): < 5%

Cc1ccc(-c2nnc(SCCCC(=O)O)o2)c(Cl)c1
IC50 [1]: 0.1 nM | Activity (PC-3 [2]): < 5% | t1/2 [15]: 0.467 h
